From patent publication EP2123328A1 (priority 2008, dated 2009)
Where two headings read alike, the source gives them in different places.

Assays:
[1] = target: T1, γ-secretase (Homo sapiens, UniProt P49768); test: Inhibitory effect on γ-secretase: ELISA of human β-amyloid in the cell medium of APP751-expressing HEK293 cells; assay type: cell-based; conditions: for γ-Secretase effect: concentration 2 µM, compared with DAPT; for γ-Secretase effect / quantity of amyloid β: figure 3; for concentrations at which the substances have γ-secretase activity / decrease of β-amyloid quantity in the cell medium: tested at 0,02, 0,2 and 2 µM, Figure 2; for quantity of amyloid β: concentration 0,02 µM
T1 construct: endogenous in cells; host or cells: HEK293 cells stably expressing APP751
Method: To a solution of norgalanthamine hydrochloride (0.42 g 1.3560 mmol) in DMF under cooling Et3N (0.19 ml 1.3520 mmol) and N-(3,4-dichlorophenyl)-alanyl-valine (0.50 g 1.5009 mmol) and N-cyclohexyl-N-[β-(N-methylformolino)-ethyl-] carbodiimide (0.64 g 1.5109 mmol) was added. The reaction mixture was stirred for 24 hours at room temperature and the end of reaction was monitored in a system of n-BuOH:AcOH:H2O= 3:1:1 To the reaction mixture 5 % NaHCO3 was add, followed by precipitate formation. The precipitate was washed by suspending in 5 % NaHCO3 and H2O. […] 137-141 °C, yield 37 %, chromatographically pure in a system of CHCl3:MeOH=9:1 and n-BuOH:AcOH:H2O= 3:1:1. IR [cm^-1]: 3384, 3062, 3028, 2930, 1640, 1599, 1280, 1240, 1059, 753, 701. HPLC: Rt= 2.58 and 2.76 min for S and R isomers. 1H NMR (CDCl3, ppm ) δ: 7.10-7.30 (2H, NH), 7.0-6.20 (10H, 5H Ph + H9', H10'+ 3H PhCl), 6.0 (m, 2H, H4', H5'), 4.7-4.4 (m, 4H, CH2NCH2), 4.5 (m, 1H, H1'), 4.14 (m, 1H, H3'), 3.85 (s, 3H, O-CH3), 3.90 (m, 1H, CHCH2Ph), 3.75 (q, 1H, CHCH3), 3.20 (m, 1H, CHCH2Ph), 2.70 (d, J=15.9 Hz, 1H, H2a'), 2.02 (d, J=15.9 Hz, 1H, H2b'), 1.90 (m, CH2), 1.30 (d, , 3H, CHCH3). Elemental analysis - nitrogen determination: C34H36N3Cl2O5, M.M= 636.54 theoretical 6.60 % N, calculated 6.62 % N. Mass spectrometry: C34H36N3Cl2O5, M.M= 636.20 found [M+H]^+=636.55. […] 133-138 °C, yield 35 %, chromatographically pure in a system of CHCl3:MeOH=9:1 and n-BuOH:AcOH:H2O= 3:1:1. IR [cm^-1]: 3338, 2963, 2931, 2874, 1656, 1630, 1599, 1382, 1373, 1279, 1214, 1059. HPLC: Rt= 2.35 and 2.53 min for S and R isomers. 1H NMR (CDCl3, ppm) δ: 7.10-7.30 (2H, NH), 7.0-6.20 (5H, H9', H10', 3H PhCl), 5.90 (m, 2H, H4', H5'), 4.7-4.4 (m, 4H, CH2NCH2), 4.5 (m, 1H, H1'), 4.15 (m, 1H, H3'), 3.86 (s, 3H, O-CH3), 3.85 (m, 1H, H2), 3.75 (q, 1H, CHCH3), 3.20 (m, 1H), 2.70 (d, J=15.9 Hz, 1H, H2a'), 2.40 (m, 1H, CH(CH3)2), 2.02 (d, J=15.9 Hz, 1H, H2b'), 1.90 (m, CH2), 1.30 (d, 3H, CHCH3), 0.80 (d, 6H, 2 x CH3). Elemental analysis - nitrogen determination: C29H33N3Cl2O5, M.M= 588.41 calculated 7.14 % N, found 6.98 % N. Mass spectrometry: C29H33N3Cl2O5, M.M= 587.20 found [M+H]^+=588.45. Example 14 The study of inhibitory effect on γ-secretase of the compounds under the inventions took place on expressing APP751 HEK293 cells using the following methods: (1) cell cultivation of expressing APP751 HEK293 cells, and (2) ELISA (solid-phase sandwich enzyme-linked immunosorbent assay) of human β-amyloid protein. HEK293 cells were cultivated in Dulbecco's modified Eaglr's medium (Applichem, Germany) with added 10% fetal calf serum (Biowhittaker, USA) and 200 U/ml Penicillin and […] Streptomycin (Applichem, Germany) at 37°C and 5% CO2. ELISA kits of human β-amyloid are intended for in vitro quantitative determination of a native or recombinant β-amyloid in serum, supernatant of cell cultures or other biological samples. In short, a monoclonal antibody specific for the amino end of β-amyloid was immobilized for a 96-pit plate. β-amyloid antigen from the standards or from the samples was connected with this first antibody. Then a second antibody was placed for detection of the specific β-amyloid 1 - 42. An anti-rabbit antibody IgG-HRP completed the sandwich. The reaction was visualized by means of 3,3",5,5"-tetramethylbenzidine (TMB) substrate, following by a stop solution. Yellow colour intensity was in direct proportion to the concentration of β-amyloid in the original sample. The sensitivity of these ELISA was < 10 pg/ml β-amyloid. ELISA method was used to study the inhibitory effect on γ-secretase of the compounds obtained according to the invention on expressing APP751 HEK293 cells. The following abbreviations were used: • 1. 6-O-N-[N- (3,4-dichlorophenyl)-D,L-alanyl]-glycil-galanthamine - AG-GAL • 2. […] 6-O-N-[N- (3,4-dichlorophenyl)-D,L-alanyl]-L-leucil-glycil-galanthamine - ALG-GAL • 4. 6-O-N-[N- (3,4-dichlorophenyl)-D,L-alanyl]-L-valyl-glycil-galanthamine - AVG-GAL • 5. N-(3,4-dichlorophenyl)-D,L-alanyl-L-phenylalanine - AF • 6. […]

[2] = target: T2, butyrylcholinesterase (Homo sapiens, UniProt P06276); test: biochemical
T2 construct: purchased Sigma
Method: In studying the inhibitory effect of the compounds according to the invention, a modified Elman's method was used. Butyrylcholine iodide was used as substrate. Butyrylcholinesterase is a commercial product (Sigma). Enzyme activity determination was performed in 0,1 M sodium phosphate buffer pH 8,0 at 25 °C. To 1 ml of the buffer, 90 mcl (7,5 MM) butyrylcholine iodide and 45 mcl (10 MM) 5,5'-ditiobis-2-nitrobenzoic acid (DTNB) were added. After stirring, 1 EU butyrylcholinesterase was added. The enzyme reaction was monitored according to the change of absorption at 412 nm in a period of 2 to10 min. The speed of the enzyme reaction was calculated in M/l.sec, using an absorption coefficient of 14,15 .10^3 1/M.cm (Eyer). Each test was repeated 3 times. The substances under study were dissolved in 50% ethyl alcohol. To trace the inhibiting effect, the compounds under study were added in different concentrations to 1,5 ml of phosphate buffer and 1 EU enzyme. They were incubated for 30 min at 25 °C, then butyrylcholine iodide and DTNB were added and the course of the enzyme reaction was monitored according to the description above. […] After a preliminary screening, such concentrations of the test substances were selected that have an inhibiting effect between 20 and 80%. To determine the inhibition constant (Ki), minimum 3 different concentrations of the test compounds under study were used. The inhibition curves for each selected concentration of the inhibitor were made using the method of double reciprocal values (Lineweaver, Burk), substrate concentration being within 90 - 3300 .10^-6 M/l. IC50 values were determined using the log-probit method. The calculations were made using the matlab6 program. IC50 values were made on the basis of experimental data obtained for different concentrations of the compounds manifesting inhibitory activity.

[3] = target: T3, acetylcholinesterase (Homo sapiens, UniProt P22303); test: biochemical
T3 construct: purchased Sigma
Method: Acetylcholine iodide was used as substrate. Acetylcholinesterase is a commercial product (Sigma). […] After stirring, 1 EU acetylcholinesterase was added. […] Each test was repeated 3 times. The test substances was dissolved in 50% ethyl alcohol.

[4] = 0,1 M sodium phosphate buffer pH 8,0, 25 °C, 30 min preincubation, butyrylcholine iodide substrate, read-out: IC50
[5] = 0,1 M sodium phosphate buffer pH 8,0, 25 °C, 30 min preincubation, acetylcholine iodide substrate, read-out: IC50

T3 sequence (P22303 32-614, species assumed): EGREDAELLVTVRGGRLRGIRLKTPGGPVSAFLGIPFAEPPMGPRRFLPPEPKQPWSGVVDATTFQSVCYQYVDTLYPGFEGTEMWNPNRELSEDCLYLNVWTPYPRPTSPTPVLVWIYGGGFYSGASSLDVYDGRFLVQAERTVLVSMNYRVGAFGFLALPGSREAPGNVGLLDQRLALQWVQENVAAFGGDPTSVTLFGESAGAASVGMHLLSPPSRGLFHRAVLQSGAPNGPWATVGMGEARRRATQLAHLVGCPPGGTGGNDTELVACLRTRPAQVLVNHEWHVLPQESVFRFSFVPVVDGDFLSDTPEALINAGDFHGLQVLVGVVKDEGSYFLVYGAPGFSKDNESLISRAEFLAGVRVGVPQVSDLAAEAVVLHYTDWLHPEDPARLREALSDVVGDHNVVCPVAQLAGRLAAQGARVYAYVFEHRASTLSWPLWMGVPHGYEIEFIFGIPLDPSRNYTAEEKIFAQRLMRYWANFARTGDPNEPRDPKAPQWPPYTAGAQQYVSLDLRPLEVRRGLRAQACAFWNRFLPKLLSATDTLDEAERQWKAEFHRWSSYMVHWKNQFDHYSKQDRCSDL
T2 sequence (P06276 29-602): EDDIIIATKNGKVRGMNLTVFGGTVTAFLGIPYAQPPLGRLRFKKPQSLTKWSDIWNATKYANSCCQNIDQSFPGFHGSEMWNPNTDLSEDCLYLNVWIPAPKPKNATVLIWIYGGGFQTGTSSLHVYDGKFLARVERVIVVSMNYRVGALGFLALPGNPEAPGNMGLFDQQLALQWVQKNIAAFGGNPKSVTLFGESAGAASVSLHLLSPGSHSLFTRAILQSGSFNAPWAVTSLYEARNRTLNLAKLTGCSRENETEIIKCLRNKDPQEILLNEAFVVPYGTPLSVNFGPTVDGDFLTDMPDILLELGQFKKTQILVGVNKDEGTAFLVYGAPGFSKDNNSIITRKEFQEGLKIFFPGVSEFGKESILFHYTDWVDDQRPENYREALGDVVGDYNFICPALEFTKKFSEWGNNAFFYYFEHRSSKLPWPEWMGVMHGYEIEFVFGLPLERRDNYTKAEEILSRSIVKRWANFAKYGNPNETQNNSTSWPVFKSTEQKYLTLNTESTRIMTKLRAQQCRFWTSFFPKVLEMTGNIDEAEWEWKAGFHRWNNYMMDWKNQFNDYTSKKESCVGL

SMILES | γ-Secretase effect [1] | IC50 [2, 4] [µM] | IC50 [3, 5] [µM] | other results
CC(Nc1ccc(Cl)c(Cl)c1)C(=O)N[C@@H](Cc1ccccc1)C(=O)O (mixture of isomers) [AF, N-(3,4-dichlorophenyl)-D,L-alanyl-L-phenylalanine] | comparable with the effect of DAPT |  |  | 
CC(C)C[C@H](NC(=O)C(C)Nc1ccc(Cl)c(Cl)c1)C(=O)O (mixture of isomers) [AL, N-(3,4-dichlorophenyl)-D,L-alanyl-L-leucine] |  |  |  | concentrations at which the substances have γ-secretase activity ([1]; 6 hours incubation): higher than 0,02 µM; decrease of β-amyloid quantity in the cell medium ([1]; 6 hours incubation): significant decrease
COc1ccc2c3c1O[C@H]1C[C@@H](OC(=O)CNC(=O)C(C)Nc4ccc(Cl)c(Cl)c4)C=C[C@@]31CCN(C)C2 (stereo partly drawn) [Compound 1, 6-O-N-[N-(3,4-dichlorophenyl)-D,L-alanyl]-glycil-galanthamine] | no inhibitory effect |  |  | IC50 [2]: 23.7 µM; IC50 [3]: 3.98 µM; quantity of amyloid β [1]: decreased significantly
COc1ccc2c3c1OC1CC(OC(=O)CNC(=O)C(Cc4ccccc4)NC(=O)C(C)Nc4ccc(Cl)c(Cl)c4)C=CC31CCN(C)C2 [Compound 2, 6-O-N-[N-(3,4-dichlorophenyl)-D,L-alanyl]-L-phenylalanyl-glycil galanthamine] |  | 10 | 3.76 | 
COc1ccc2c3c1OC1CC(OC(=O)CNC(=O)C(CC(C)C)NC(=O)C(C)Nc4ccc(Cl)c(Cl)c4)C=CC31CCN(C)C2 [Compound 3, 6-O-N-[N-(3,4-dichlorophenyl)-D,L-alanyl]-L-leucil-glycil-galanthamine] | comparable with the effect of DAPT | 0.612 | 3.35 | quantity of amyloid β [1]: decreased significantly
COc1ccc2c3c1OC1CC(OC(=O)CNC(=O)C(NC(=O)C(C)Nc4ccc(Cl)c(Cl)c4)C(C)C)C=CC31CCN(C)C2 [Compound 4, 6-O-N-[N-(3,4-dichlorophenyl)-D,L-alanyl]-L-valyl-glycil-galanthamine] |  | 0.335 | 8.33 | concentrations at which the substances have γ-secretase activity ([1]; 6 hours incubation): higher than 0,02 µM; decrease of β-amyloid quantity in the cell medium ([1]; 6 hours incubation): significant decrease
COc1ccc2c3c1O[C@H]1C[C@@H](O)C=C[C@@]31CCN(C(=O)[C@H](Cc1ccccc1)NC(=O)C(C)Nc1ccc(Cl)c(Cl)c1)C2 (stereo partly drawn) [Compound 5, 11-N-demethyl-11-N-N-[N-(3,4-dichlorophenyl)-D,L-alanyl]-L-phenylalanyl-galanthamine] |  |  |  | IC50 [2]: 0.447 µM; IC50 [3]: 12.5 µM
COc1ccc2c3c1OC1CC(O)C=CC31CCN(C(=O)C(NC(=O)C(C)Nc1ccc(Cl)c(Cl)c1)C(C)C)C2 [Compound 6, 11-N-demethyl-11-N-N-[N-(3,4-dichlorophenyl)-D,L-alanyl]-L-valyl-galanthamine] |  | 0.603 | 31.2 | 
C[C@H](NC(=O)Cc1cc(F)cc(F)c1)C(=O)N[C@H](C(=O)OC(C)(C)C)c1ccccc1 [DAPT, N-[N-(3,5-difluorophenylacetyl)-L-alanyl]-S-phenylglycin tertiary butyl ester, reference compound] |  |  |  | concentrations at which the quantity of β amyloid is decreased by inhibiting γ-secretase activity ([1]; 6 hours incubation, serum-free medium, figure 1): higher than 160 nM
